Test results taken from PMC11601558, “SLC6A19 inhibition facilitates urinary neutral amino acid excretion and lowers plasma phenylalanine” (JCI Insight, 2024).
pIC50: −log10 of the molar value. Several values for one entry are separate records, joined by “and”; a condition that tells them apart may be missing. Identical values can stand only once. Like-named read-outs stand apart in the source and are kept apart here.

Target: T1, human SLC6A19 (Homo sapiens, UniProt Q695T7)
T1 construct: expressed in transfected cells
T1 sequence (Q695T7 1-634): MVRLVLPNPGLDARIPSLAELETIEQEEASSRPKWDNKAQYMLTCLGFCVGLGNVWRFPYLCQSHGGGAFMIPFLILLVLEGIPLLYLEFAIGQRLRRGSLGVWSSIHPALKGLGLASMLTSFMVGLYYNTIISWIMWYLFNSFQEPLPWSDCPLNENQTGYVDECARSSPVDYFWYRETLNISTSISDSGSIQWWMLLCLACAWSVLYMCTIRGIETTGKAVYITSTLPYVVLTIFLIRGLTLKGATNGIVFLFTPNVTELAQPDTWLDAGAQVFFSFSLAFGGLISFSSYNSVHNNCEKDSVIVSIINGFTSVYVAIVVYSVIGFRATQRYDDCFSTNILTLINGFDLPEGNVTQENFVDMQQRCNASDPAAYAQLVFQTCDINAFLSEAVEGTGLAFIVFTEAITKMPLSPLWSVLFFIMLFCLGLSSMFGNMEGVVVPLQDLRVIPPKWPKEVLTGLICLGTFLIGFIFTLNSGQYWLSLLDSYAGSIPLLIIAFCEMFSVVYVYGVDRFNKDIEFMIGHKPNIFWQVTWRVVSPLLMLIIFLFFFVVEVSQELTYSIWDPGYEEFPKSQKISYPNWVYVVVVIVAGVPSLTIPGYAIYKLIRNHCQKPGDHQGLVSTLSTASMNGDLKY
T1 sequence (Q9HBJ8 15-222 partner): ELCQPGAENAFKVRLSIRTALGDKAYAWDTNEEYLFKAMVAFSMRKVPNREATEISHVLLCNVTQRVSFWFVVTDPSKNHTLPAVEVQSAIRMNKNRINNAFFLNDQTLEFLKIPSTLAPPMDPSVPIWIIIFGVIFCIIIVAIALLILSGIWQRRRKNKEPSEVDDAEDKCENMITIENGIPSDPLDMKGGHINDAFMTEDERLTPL
Assay: Isoleucine transport assay, Flp-In T-REx 293 cells coexpressing human SLC6A19 and TMEM27
Type: cell-based
Details: for isoleucine transport, Human (Fig 1f curve point) / isoleucine transport, Human (Fig 1c curve point): technical replicates
Protocol: Flp-In T-REx 293 cells (Thermo Fisher Scientific) were engineered to coexpress C-terminally V5-tagged human or mouse SLC6A19 under the control of a tetracycline-inducible promoter and human or mouse myc-DDK-tagged TMEM27 under the control of a constitutively active promoter. Cells were maintained in DMEM/F12 medium supplemented with 10% FBS, 100 units/mL penicillin, 100 μg/mL streptomycin, 200 μg/mL hygromycin, 10 μg/mL blasticidin, and 300 μg/mL geneticin (all from Thermo Fisher Scientific) at 37°C and 5% CO2.
Flp-In T-REx 293 cells stably coexpressing human or mouse SLC6A19 and TMEM27 were plated in 384-well plates in the presence of 1 μg/mL tetracyclin (Sigma-Aldrich) to induce the expression of SLC6A19. After 24 hours, cells were washed with live cell imaging solution (LCIS, Thermo Fisher Scientific) before JN-170 or JNT-517 were added to cells in 10-point concentration response curves in 0.5% DMSO in Krebs buffer (140 mM NaCl, 4.7 mM KCl, 2.5 mM CaCl2, 1.2 mM MgCl2, 11 mM HEPES, 10 mM glucose, pH 7.4). Cells were incubated with compounds for 1 hour at room temperature before 1 mM ^13C6,^15N1-labeled L-isoleucine (Cambridge Isotope Laboratories) was added as a transport substrate. After 20 minutes incubation at room temperature, cells were washed and lysed in H2O with 15 μM internal standard D-Leucine-D10 (CDN Isotopes) for 1–2 hours. A standard curve of ^13C6,^15N1-L-isoleucine was added to each plate following cell lysis. Plates were centrifuged at 3,700g to remove cell debris, and supernatant was diluted in 2 steps to a final 1:10 dilution in acetonitrile/0.1% formic acid. Sample desalting was performed on a high throughput RapidFire-365 (Agilent) using a hydrophilic interaction liquid chromatography (HILIC) column. A quantitative time-of-flight (Q-ToF) mass spectrometer (Agilent) was used to detect analytes. Agilent MassHunter quantitative analysis for time of flight was used as the integration software for measuring area under the peak for both ^13C6,^15N1-L-isoleucine and D-Leucine-D10 internal standard.
IC50 values for transport inhibition in cells overexpressing SLC6A19 and TMEM27 were calculated using a 4-parameter logistic regression in Collaborative Drug Discovery (CDD). Reported IC50 values are geometric means of 4–6 independent experiments. For postmortem intestinal transport assays, single outliers of quadruplicate replicates were excluded from the calculation if a signal value’s distance to the mean exceeded 35% of the signal average. The IC50 values of individual experiments were calculated with a 3- or 4-parameter logistic regression using GraphPad Prism 9. The reported IC50 value represents the geometric mean of n = 5 experiments from 3 individual donors. Statistical comparison of urinary Phe excretion in Pah^enu2 mice treated with vehicle or JN-170 was conducted using 1-way analysis of variance (ANOVA) with Tukey’s post hoc comparison. Statistical analysis of baseline-adjusted plasma Phe in mice treated with vehicle or JN-170 was determined by 2-way ANOVA with Dunnett’s post hoc comparison. All statistical analyses were performed using GraphPad Prism 9. For clinical studies, group sizes were not determined based on statistical power calculations. Statistical significance of pharmacodynamic results was not assessed. Values are reported as mean (urinary Phe excretion, T1/2, Cl/F), geometric mean (Cmax/D, AUC0-inf/D), or median (Tmax).

N#Cc1ccc(-c2noc([C@]3(C(F)(F)F)CCN(C(=O)NCCC4(N)CC4)C3)n2)cc1 [JN-170]
fold less potent against human SLC6A19 than mouse SLC6A19: > 10 fold
isoleucine transport, Human (Fig 1f curve point) (0.000722 uM): 84.3 and 86.8
isoleucine transport, Human (Fig 1f curve point) (0.00219 uM): 72.6 and 89.2
isoleucine transport, Human (Fig 1f curve point) (0.00438 uM): 81.4 and 98.3
isoleucine transport, Human (Fig 1f curve point) (0.015313 uM): 84.4 and 88.8
isoleucine transport, Human (Fig 1f curve point) (0.048125 uM): 85.9 and 72.3
isoleucine transport, Human (Fig 1f curve point) (0.144375 uM): 64.5 and 70.3
isoleucine transport, Human (Fig 1f curve point) (0.4375 uM): 40 and 54.4
isoleucine transport, Human (Fig 1f curve point) (1.3125 uM): 41.1 and 23.8
isoleucine transport, Human (Fig 1f curve point) (3.9375 uM): 21 and 4.32
isoleucine transport, Human (Fig 1f curve point) (11.8125 uM): 2.26 and -9.71
pIC50 (geometric mean n = 6, 95% CI 0.68–2.82 μM, read-out: IC50 against human SLC6A19, isoleucine transport assay): 5.90

NC(=O)N1CCC[C@@H](N(C(=O)NCc2ccc(OC(F)(F)F)cc2F)C2CC2)C1 [JNT-517]
isoleucine transport, Human (Fig 1c curve point) (0.000722 uM): 89.9 and 94.8
isoleucine transport, Human (Fig 1c curve point) (0.00219 uM): 91.3 and 95.5
isoleucine transport, Human (Fig 1c curve point) (0.00438 uM): 79.4 and 85.4
isoleucine transport, Human (Fig 1c curve point) (0.0153125 uM): 71.2 and 80.7
isoleucine transport, Human (Fig 1c curve point) (0.048125 uM): 33.9 and 45.4
isoleucine transport, Human (Fig 1c curve point) (0.144375 uM): 25.9 and 24
isoleucine transport, Human (Fig 1c curve point) (0.4375 uM): 12.2 and 4.05
isoleucine transport, Human (Fig 1c curve point) (1.3125 uM): -3.01 and -3.67
isoleucine transport, Human (Fig 1c curve point) (3.9375 uM): -3.2 and -3.39
isoleucine transport, Human (Fig 1c curve point) (11.8125 uM): -9.74 and -5.08
pIC50 (geometric mean n = 4, 95% CI 38–57 nM, read-out: potency (IC50) against human SLC6A19, isoleucine transport assay): 7.33
